Results reported in patent publication US20150198597A1, “Method for monitoring PARP activity in cells by PARP activation” (Stichting Het Nederlands Kanker Instituut, priority 2012, published 2015).

Test system: PARP
Details: PBMCs; H2O2 at 0, 12.5, 50, 200 and 800 μM; treated and maintained on ice (0-4° Celsius) for 60 minutes; FIG. 3B
Method: Cells were treated on ice (at 0-4° Celsius) and cells were maintained on ice (at 0-4° Celsius) for 60 minutes. Cells were immediately lysed thereafter and PAR levels were measured by using the Trevigen® PARP Pharmacodynamic assay II. The PAR levels (y-axis) are plotted against the H2O2 concentration (x-axis).
The assay was used to quantify the amount of PAR in peripheral blood mononuclear cells (PBMC).
Peripheral Blood Mononuclear Cells (PBMCs) were prepared by drawing 8 ml blood from a subject in a BD vacutainer CPT-citrate tube (RT) at the clinic. Invert the tubes three times to mix the anti-coagulant (1 ml) with the blood and keep the tube at room temperature (RT). Centrifuge for 25 minutes at 1500×g at RT, and invert the tubes three times. Pour the upper layer into a 50 ml Falcon tube on ice and incubate on ice for 5 minutes. Adjust the total volume to 50 ml with ice-cold PBS and centrifuge 10 minutes at 330×g at 4° Celsius. Decant the supernatant and place the tube inverted on filter paper for 2 seconds. Re-suspend the pellet in 10 ml ice-cold PBS. Count the PBMCs with a hema-cytometer and centrifuge 10 minutes at 330×g at 4° Celsius. Re-suspend the pellet at 2×10exp6 PBMC/500 μl in PBS and transfer to a pre-chilled 2.0 ml tube on ice.
For example, cells are suspended at 2×10E6 PBMC/500 μl culture PBS. […]

OO [H2O2, hydrogen peroxide]
PAR levels: Higher PAR levels were found with increasing H2O2 treatment concentration
